Experimental data from patent US4266034A, “Method for producing microbial cells and use thereof to produce oxidation products” (priority 1979, dated 1981).

Key:
[1] = test system: methanol-grown Methylococcus capsulatus CRL M1 (NRRL B-11,219); assay: Production of 2-butanone from 2-butanol by cell suspensions, inhibition studies; assay type: cell-based; details: 1 mM
[2] = test system: cell-free particulate fractions derived from the methylotrophic microorganisms; assay: Inhibition of conversion of C3-C6 n-alkanes to sec. alcohols by cell-free particulate fractions; assay type: biochemical; details: oxygen and NADH
Text: The conditions for preparing the cell suspensions or the cell-free particulate fractions from methane-grown methylotroph microorganisms is the same as described above. […] Tables XXV and XXVI show the conversion of C3 -C6 n-alkanes to the corresponding secondary alcohols using cell suspensions and cell-free particulate fractions, respectively, of methane-grown methylotroph microorganisms.

[3] = test system: secondary alcohol dehydrogenase (SADH); assay: Purified secondary alcohol dehydrogenase (SADH) activity; assay type: biochemical, Pseudomonas sp. ATCC 21439; details: each inhibitor 1 mM; measured spectrofluorometrically
Method: Secondary alcohol dehydrogenase (SADH) from an obligate methanol utilizer, Pseudomonas sp. ATCC 21439 was purified as follows. […] 0.05 M sodium phosphate buffer, pH 7.0 with 0.5 mM dithiothretol (buffer A) and were disrupted sonically (5×1 min.). The crude extract was separated by centrifugation. The crude extract was heat-treated at 50° C. in a water bath for 10 minutes. The resulting precipitate was removed by centrifugation. To the supernatant solution, 25 ml of protamine sulfate solution (2% solution in 0.1 M Tris base) was added dropwise with continuous stirring. After standing for 30 minutes, the extract was centrifuged. The supernatant solution was fractionated with solid ammonium sulfate. The material precipitating between 30 and 60% saturation was collected and was dialized overnight against buffer A. The The dialized material was applied to a DEAE-cellulose column (3 cm by 35 cm) that had been equilibrated with buffer A. The secondary alcohol dehydrogenase activity was eluted in the void volume. This DEAE-cellulose eluate was concentrated by ammonium sulfate fractionation. Material precipitating between 30 and 50% ammonium sulfate saturation was collected by centrifugation and dialyzed overnight against A. This fraction was further washed and filtered through an Amicon unit with XM 50 membrane. The concentrated fraction (6 ml) inside the Amicon unit was applied to an Affi-Gel Blue column (0.8 cm×18 cm) which had been equilibrated with buffer A for affinity chromatography. The column was washed overnight with buffer A (0.18 ml./min.) and then was eluted with buffer A containing 5 mM NAD. Each 1 ml. fraction was collected.
The purified secondary alcohol dehydrogenase enzyme (SADH) may be used directly for converting C3 -C6 secondary alcohols to the corresponding methyl ketones by the procedures described above; however, a source of NAD^+ must be added to the reaction medium. One can determine the NAD-linked secondary alcohol dehydrogenase activity with a fluorescence spectrophotometer (Perkin Elmer, Model MPF 44A) by following the formation of reduced NAD (Ex 340 nm, Em 460 nm). The assay system (3 ml.) will typically contain: sodium phosphate buffer pH 7.0, 150 μmol; NAD 1.0 μmol; a given amount of enzyme preparation; and 20 μmol secondary alcohol. The reaction is started by the addition of secondary alcohol. One unit of SADH enzyme activity represents the reduction of one nmole NAD per minute.
The effect of metal-chelating agents and thioreagents on the activity of the purified SADH enzyme were studied. […] The possibility of ethanol or n-propanol as an inhibitor was studied.

[4] = test system: secondary alcohol dehydrogenase; assay: Cofactor requirement of cell-free soluble extracts oxidizing 2-butanol; assay type: biochemical; details: cell-free systems
Method: Catalytic activity was also assayed by fluorescence spectrophotometry.

[5] = test system: secondary alcohol dehydrogenase; assay: Purified yeast-derived secondary alcohol dehydrogenase activity; assay type: biochemical, Pichia sp. NRRL Y-11,328; details: purified enzyme
Method: Large scale cultures of Pichia sp. NRRL Y-11,328 were grown with aeration at 30° C. in a 14-liter New Brunswick f fermentor in a mineral salt medium containing methanol (0.4%, v/v) as the sole carbon source. The cells (200 g., wet weight) were suspended in […] sodium phosphate buffer, pH 7.0, containing 1 mM dithiothreitol (buffer A), and crude extracts were prepared as described previously. To the crude extracts, 18 ml. of protamine sulfate solution [2% solution in 0.1 M tris (hydroxymethyl) aminomethane (tris) base] was added dropwise with continuous stirring. After standing for 30 min., the extracts were centrifuged at 20,000×g. for 60 min. The supernatant solution was fractionated with solid ammonium sulfate. Extracts were brought to 50% of saturation with respect to ammonium sulfate by addition of 313 g. of the salt per liter of extract. Precipitated proteins was removed by centrifugation, and 137 g. of ammonium sulfate was added per liter of the supernatant liquid to bring it to 70% of saturation. Material precipitating between 50 and 70% of saturation was collected by centrifugation and dissolved in buffer A. This preparation was dialyzed overnight against buffer A, and the dialyzed material was applied to a DEAE-cellulose column (5×40 cm) that had been equilibrated with buffer A. The sample was washed with 200 ml. of buffer A and eluted with 2 liters of buffer A that contained NaCl in a linear gradient running from a concentration of 0 to 0.5 M. Fractions of 15 ml. were collected. Fractions containing secondary alcohol dehydrogenase activity were pooled and were termed DEAE-cellulose eluate. The DEAE-cellulose eluate was concentrated by ammonium sulfate fractionation.
Secondary alcohol dehydrogenase activity was measured spectrophotometrically at 340 nm with a NAD^+ as an electron acceptor. The reaction mixture, in a total 3.0 ml., contained 50 mM phosphate buffer, pH 8.0, 5 μmoles NAD^+, crude extracts, and substrate. […] Protein concentration was determined by the method of Lowry et al.
The substrate specificity of the purified secondary alcohol dehydrogenase was examined spectrophotometrically.

## NC(N)=S [Thiourea]
[1]
  Inhibition (%) of production of 2-butanone: not inhibited
[2]
  inhibition of the conversion of n-alkanes to sec. alcohols: inhibited

## c1ccc(-c2ccccn2)nc1 [α,α-Bipyridyl]
[3]
  % inhibition of SADH activity: 70%
[1]
  Inhibition (%) of production of 2-butanone: inhibited
[2]
  inhibition of the conversion of n-alkanes to sec. alcohols: inhibited

## O=C1C(Cl)=CC(=Nc2ccc(O)cc2)C=C1Cl [2,6-dichlorophenol indophenol]
[4]
  effectiveness as cofactor in place of NAD: not effective
[5]
  ability to act as electron carrier in place of NAD^+: could not act as electron carrier

## N[C@@H](CCC(=O)N[C@@H](CS)C(=O)NCC(=O)O)C(=O)O [glutathione]
[4]
  effectiveness as cofactor in place of NAD: not effective
[5]
  inhibition of secondary alcohol dehydrogenase activity: strongly inhibited

## c1cnc2c(c1)ccc1cccnc12 [1,10-Phenanthroline]
[3]
  % inhibition of SADH activity: 95%
[1]
  Inhibition of 2-butanone production (yes/no): inhibited
[2]
  inhibition of the conversion of n-alkanes to sec. alcohols: inhibited
[5]
  inhibition of secondary alcohol dehydrogenase activity: strongly inhibited
